For experiment [1], the target named is T1, spermidine/spermine N^1 -acetyltransferase (Rattus norvegicus, UniProt Q6P9U6).
T1 construct: Cytosolic spermidine acetyltransferase activity was extracted from the livers of male Sprague-Dawley rats; from tissue; host or cells: liver of male Sprague-Dawley rats, 6 h after intraperitoneal carbon tetrachloride; cytosolic extract
Description: Cytosolic spermidine acetyltransferase assay ([14C]acetyl Coenzyme A, cellulose phosphate paper). The following applies: for relative effectiveness in inhibiting the acetylation of spermidine and spermine: inhibitors compared with one another; for inhibitory activity towards spermidine/spermine N^1 -acetyltransferase / potency relative to the sym-norspermidine derivative: FIG. 2. It is filed as biochemical. On the procedure: Spermidine acetyltransferase activity was assayed in a volume of 100 μl containing 100 μg of extract protein, 300 nmol spermidine, 0.8 nmol (40 nCi) [1^14 C] acetyl Coenzyme A and 10 μmol tris-HCl (pH 7.8). The reaction was allowed to proceed at 30° C. for 10 min and was terminated by the addition of 20 μl of 1M NH2 OH.HCl. Protein was precipitated by boiling the samples for 3 min and was removed by centrifugation. 50 μl of the supernatant was applied to a 2.2 cm diameter disc of cellulose phosphate paper and was allowed to dry. The discs were washed in a beaker five times with water and three times with ethanol.
Non-enzymatic blank values for both histone and spermidine acetylation assays were routinely obtained by incubations of all the reactants excluding enzyme in the appropriate buffer.

A further experiment deals with histone acetylation. The following applies: mammalian cells; cited from earlier work.
A further experiment concerns rat hematoma cells. Description: DNA replication and proliferation of rat hematoma cells in culture. The format is cell-based.
Experiment [2] concerns human prostate gland adenoma cells. Description: DNA replication and proliferation of human prostate gland adenoma cells in culture. It is filed as cell-based.
A further experiment has as its system tumor growth. Description: Experimental tumor models, tumor growth. It is filed as in vivo. The following applies: several experimental tumor models.
For another experiment, the system named is murine tumors. Description: Murine tumors, alone and in combination with three cytotoxic agents. The format is in vivo.
Another experiment deals with ventral prostate gland. Description: Prostate gland secretion, growth and regrowth in rats. The format is in vivo.
Another experiment concerns embryogenesis. Description: Fertility, implantation and embryonic development in treated mice. It is filed as in vivo.
For experiment [3], the system named is Trypanosoma brucei brucei. Description: Replication of and infection by Trypanosoma brucei brucei. The following applies: in vivo.
Experiment [4] relates to exoerythrocyctic infection (malaria). Description: Animal studies of malaria. The format is in vivo.
The subject of the next experiment is Pneumocystis carinii. Description: Treatment of Pneumocystis carinii pneumonia. The format is in vivo. The following applies: opportunistic infection in the setting of AIDS.
The target in experiment [5] is T1, spermidine/spermine N^1 -acetyltransferase. Description: Cytosolic spermidine acetyltransferase assay ([14C]acetyl Coenzyme A, cellulose phosphate paper). It is filed as biochemical. The following applies: highly purified spermidine/spermine N^1 -acetyltransferase; FIG. 1.
Setting [6] is: female mice treated prior to copulation and up to 18 days after fecundation.

T1 sequence (Q6P9U6 1-171): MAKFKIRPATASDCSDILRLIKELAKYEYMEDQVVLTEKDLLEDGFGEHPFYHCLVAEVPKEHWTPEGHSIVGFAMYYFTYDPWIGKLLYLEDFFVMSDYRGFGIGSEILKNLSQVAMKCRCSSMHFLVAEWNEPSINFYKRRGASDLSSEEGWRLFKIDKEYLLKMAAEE

For the molecule `NCCCN` [1,3-diaminopropane], the “relative effectiveness in inhibiting the acetylation of spermidine and spermine” value in [1] is “marginal superiority to putrescine”.

Take `CC(C)(COP(=O)(O)OP(=O)(O)OC[C@H]1O[C@@H](n2cnc3c(N)ncnc32)[C@H](O)[C@@H]1OP(=O)(O)O)[C@@H](O)C(=O)NCCC(=O)NCCSCC(=O)NCCCNCCCCN` [I, N-[2-(S-Coenzyme A)acetyl] spermidine amide]: in experiment [1], the “inhibitory activity towards spermidine/spermine N^1 -acetyltransferase” value is “strong inhibitors” and the “potency relative to the sym-norspermidine derivative” value was “more than an order of magnitude less potent”.

With `CC(C)(COP(=O)(O)OP(=O)(O)OC[C@H]1O[C@@H](n2cnc3c(N)ncnc32)[C@H](O)[C@@H]1OP(=O)(O)O)[C@@H](O)C(=O)NCCC(=O)NCCSCC(=O)NCCCCNCCCN` [II, N-[2-(S-Coenzyme A)acetyl] spermidine amide], in experiment [1], the “inhibitory activity towards spermidine/spermine N^1 -acetyltransferase” value is on record as “strong inhibitors” and the “potency relative to the sym-norspermidine derivative” value is reported as “more than an order of magnitude less potent”.

Take `CC(C)(COP(=O)(O)OP(=O)(O)OC[C@H]1O[C@@H](n2cnc3c(N)ncnc32)[C@H](O)[C@@H]1OP(=O)(O)O)[C@@H](O)C(=O)NCCC(=O)NCCSCC(=O)NCCCNCCCCN` [N-[2-(S-Coenzyme A)acetyl] spermidine amide]: the histone acetylation entry in the experiment with histone acetylation is reported as “inhibit histone acetylation”.

As for `CC(C)(COP(=O)(O)OP(=O)(O)OC[C@H]1O[C@@H](n2cnc3c(N)ncnc32)[C@H](O)[C@@H]1OP(=O)(O)O)[C@@H](O)C(=O)NCCC(=O)NCCSCC(=O)NCCCNCCCN` [N-[2-(S-Coenzyme A)acetyl] sym-norspermidine amide], in experiment [1] (crude cytosolic extracts from livers of carbon tetrachloride treated rats, FIG. 1), the “inhibition of the acetylation of spermidine” value is on record as “very potent inhibitor”. For the same molecule, the “dependence of the inhibition on substrate concentration” value in [1] (no full kinetic analysis) is reported as “greater when the assays were carried out at lower concentrations with either substrate”. In the experiment with rat hematoma cells, the DNA replication entry is “inhibits DNA replication” and the cell proliferation result is “retards proliferation”. In [2], the DNA replication entry is on record as “inhibits DNA replication” and the cell proliferation result was “retards proliferation”. The tumor growth entry with tumor growth is reported as “Marked retardation or arrest of tumor growth”. Moreover, the “antitumor effect alone versus each cytotoxic drug” value in the experiment on murine tumors (alone) is “superior to those of each cytotoxic drug”. In addition, the “antitumor effect of combination with cytotoxic agents” value in the experiment on murine tumors (combination with any of three cytotoxic agents) is reported as “synegistic”. Further, the androgen-induced prostatic regrowth result in the experiment with ventral prostate gland (castrated rats) is “marked slowing”. Also, the prostate gland secretion entry with ventral prostate gland (rats) was “effectively inhibited”. Besides, the “growth of the ventral prostate gland” value in the experiment on ventral prostate gland (rats, versus control group) is on record as “significantly less than in the control group”. In addition, in the experiment with embryogenesis (setting [6]), the implantation result was “no effect” and the subsequent embryonic development result is “totally inhibited”. The fertility entry in the experiment with embryogenesis (male and female mice treated prior to mating with untreated animals) was “no effect on fertility”. For the same molecule, in [3], the T.b. brucei infection entry is listed as “completely eliminating the infection” and the “replication of Trypanosoma brucei brucei” value was “inhibits the replication”. The “efficacy against exoerythrocyctic infection” value in [4] is on record as “effective therapeutic agent”. For the same molecule, the “efficacy in Pneumocystis carinii pneumonia” value in the experiment with Pneumocystis carinii was “effective in treatment”. Further, in experiment [5], the “inhibition of the acetylation of spermidine” value is reported as “very potent inhibitor”.

For `CC(C)(COP(=O)(O)OP(=O)(O)OC[C@H]1O[C@@H](n2cnc3c(N)ncnc32)[C@H](O)[C@@H]1OP(=O)(O)O)[C@@H](O)C(=O)NCCC(=O)NCCSCC(=O)NCCCN` [amide derived from 1,3-diaminopropane], in experiment [1], the “potency relative to the sym-norspermidine derivative” value is “much less active”. In addition, in experiment [1] (FIG. 2C), the “inhibition relative to coenzyme A” value is “marginally more inhibitory than coenzyme A”.

As for `CC(C)(COP(=O)(O)OP(=O)(O)OC[C@H]1O[C@@H](n2cnc3c(N)ncnc32)[C@H](O)[C@@H]1OP(=O)(O)O)[C@@H](O)C(=O)NCCC(=O)NCCSCC(=O)NCCCCN` [amide derived from putrescine], in experiment [1], the “potency relative to the sym-norspermidine derivative” value is reported as “much less active”.

In the case of `NCCCCN` [putrescine], in experiment [1], the “relative effectiveness in inhibiting the acetylation of spermidine and spermine” value was “least effective”.

As to `CC(C)(COP(=O)(O)OP(=O)(O)OC[C@H]1O[C@@H](n2cnc3c(N)ncnc32)[C@H](O)[C@@H]1OP(=O)(O)O)[C@@H](O)C(=O)NCCC(=O)NCCSCC(=O)NCCCCNCCCCN` [sym-homospermidine derivative], in experiment [1], the “potency relative to the sym-norspermidine derivative” value is “ten times less active”.

On to `NCCCCNCCCCN` [sym-homospermidine], for which, in experiment [1], the “relative effectiveness in inhibiting the acetylation of spermidine and spermine” value is listed as “an order more effectiveness than the other two compounds”.

Values taken from patent US4826968A, “S-alkylated coenzyme A with effect on polyamine acetylase” (Research Corporation, priority 1985, dated 1989).
